The record followed here is US12441707B2, “Indazole compounds” (TYRA BIOSCIENCES, INC., priority 2019, dated 2025).

The target of one test is FGFR3 (Homo sapiens (Human), UniProt P22607). As to the kind of experiment: Kinase binding assay (kinase-tagged T7 phage, liganded affinity beads, qPCR). The conditions noted are these: binding constant; 0.9% DMSO. (In general: Real-time PCR tracks product formation cycle by cycle.)
In test [1] the target is T1, FGFR2 (Homo sapiens (Human), UniProt P21802). As to the kind of experiment: biochemical.
Procedure: (§3) Kinase-tagged T7 phage strains were prepared in an E. coli host derived from the BL21 strain. E. coli were grown to log-phase and infected with T7 phage and incubated with shaking at 32° C. until lysis. The lysates were centrifuged and filtered to remove cell debris. […] The liganded beads were blocked with excess biotin and washed with blocking buffer SeaBlock (Pierce), 1% BSA, 0.05% Tween 20, 1 mM DTT to remove unbound ligand and to reduce non-specific binding.
(§4) Test compounds were prepared as 111× stocks in 100% DMSO. Kds were determined using an 11-point 3-fold compound dilution series with three DMSO control points. […] The compounds were then diluted directly into the assays such that the final concentration of DMSO was 0.9%. All reactions performed in polypropylene 384-well plate. Each was a final volume of 0.02 ml. […] The kinase concentration in the eluates was measured by qPCR.
(§5) Binding constants were calculated with a standard dose-response curve using the Hill equation:
(§6) The Hill Slope was set to −1. Curves were fitted using a non-linear least square fit with the Levenberg-Marquardt algorithm.
The target of the next test is FGFR1 (Homo sapiens (Human), UniProt P11362). As to the kind of experiment: Kinase binding assay (kinase-tagged T7 phage, liganded affinity beads, qPCR). As to conditions: binding constant; 0.9% DMSO.
For test [2], the target named is T1, FGFR2.
Procedure: as §3, §4, §5, §6
Test [3] relates to RT112/84 cells (Bladder Cancer, FGFR3-TACC3 fusion). In words: RT112/84 cell viability assay (CellTiter-Glo 2.0). The conditions noted are these: Homo sapiens, 72 hours. Format: cell-based. From the text: Example B. RT112/84 Cell Viability Assay
RT112/84 cell line was purchased from American Type Culture Collection (Manassas, VA).
(§1) Experimental Purpose: To detect the change of intracellular ATP by Cell Titer-Glo® and to evaluate the inhibitory effect of the compounds on cancer cell lines by determining the in vitro IC50 value of the compounds.
(§2) RT112/84 and KG-1 cell lines were purchased from American Type Culture Collection (Manassas, VA). UM-UC-14 cell line was purchased from Sigma (St. Louis, MO).
Background: Cellular ATP, detected with luciferase, serves as a proxy for viable cell number.

Test [4] deals with KG-1 cells (Acute Myeloid Leukemia, FGFR1OP2-FGFR1 fusion). As to the kind of experiment: KG-1 cancer cell line cell viability assay (CellTiter-Glo 2.0). In kind it is cell-based. As to conditions: Homo sapiens, 72 hours.
Excerpt: as §1, §2

Test [5] has as its system UM-UC-14 cells (Bladder Cancer, FGFR3(S249C)). As to the kind of experiment: UM-UC-14 cancer cell line cell viability assay (CellTiter-Glo 2.0). In kind it is cell-based. As to conditions: UMUC14, 72 hours.
Excerpt: as §1, §2

Test [6] deals with FGFR3-BAIAP2L1 Ba/F3 cells.
Procedure: Ba/F3 Cell Viability Assays Experimental Purpose: Recombinant kinase fusions are transduced into parental Ba/F3, which becomes dependent upon this constitutive kinase activity for IL3-independent survival. Inhibition of kinase activity leads to cell death, which is monitored using CellTiter-Glo® 2.0 (Promega) which measures intracellular ATP concentration that in turn serves as a marker for viability. […] Cultures were maintained at 37° C. in a humidified atmosphere of 5% CO2 and 95% air. Cells were plated in 96-well clear bottom/white plates (Corning #3903) at 10,000 cells/well in 100 μl of media, incubated overnight. The next day, test compound DMSO stock solutions were made at 10 mM and 2 μM final concentration. Compounds were then added to cells in a 9-dose, 10-fold dilution series starting at 30 μM with an HP 300e Digital Dispenser (each dose was applied in triplicate). DMSO was backfilled to each well up to 301 nL total volume of test compound+DMSO, and a total of 301 nL DMSO was added to a control/no test compound well in triplicate. […] Luminescence was recorded by a Synergy H1 Microplate Reader (Biotek, Winooski, VT). Cells were assessed as a percentage of DMSO only treated control cells. Curves were plotted and IC50 values were calculated using the GraphPad Prism 8 program based on a sigmoidal dose-response equation (4 parameter).

Like-named read-outs stand apart in the source and are kept apart here.

FGFR1, sequence (P11362 22-822): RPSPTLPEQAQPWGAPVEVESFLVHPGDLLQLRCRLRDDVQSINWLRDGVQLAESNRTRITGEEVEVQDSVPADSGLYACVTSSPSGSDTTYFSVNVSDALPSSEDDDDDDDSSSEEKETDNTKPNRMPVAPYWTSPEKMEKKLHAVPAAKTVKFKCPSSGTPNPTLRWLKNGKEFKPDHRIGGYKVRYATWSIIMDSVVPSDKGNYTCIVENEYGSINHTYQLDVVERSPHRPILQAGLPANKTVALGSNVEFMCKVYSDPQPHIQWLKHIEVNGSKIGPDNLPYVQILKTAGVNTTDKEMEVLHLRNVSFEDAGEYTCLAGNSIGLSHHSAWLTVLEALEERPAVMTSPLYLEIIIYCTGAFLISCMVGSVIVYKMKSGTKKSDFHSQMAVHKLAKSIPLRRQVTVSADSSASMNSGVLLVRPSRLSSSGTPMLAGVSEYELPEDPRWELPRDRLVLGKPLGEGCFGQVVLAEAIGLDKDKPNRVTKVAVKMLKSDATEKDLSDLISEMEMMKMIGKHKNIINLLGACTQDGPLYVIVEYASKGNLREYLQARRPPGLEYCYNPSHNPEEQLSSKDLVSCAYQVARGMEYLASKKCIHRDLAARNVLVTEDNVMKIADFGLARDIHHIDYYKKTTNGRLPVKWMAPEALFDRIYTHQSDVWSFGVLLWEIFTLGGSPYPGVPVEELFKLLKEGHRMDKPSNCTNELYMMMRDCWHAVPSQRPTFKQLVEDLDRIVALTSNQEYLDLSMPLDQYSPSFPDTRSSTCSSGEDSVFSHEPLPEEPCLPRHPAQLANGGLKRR
T1 sequence (P21802 22-821): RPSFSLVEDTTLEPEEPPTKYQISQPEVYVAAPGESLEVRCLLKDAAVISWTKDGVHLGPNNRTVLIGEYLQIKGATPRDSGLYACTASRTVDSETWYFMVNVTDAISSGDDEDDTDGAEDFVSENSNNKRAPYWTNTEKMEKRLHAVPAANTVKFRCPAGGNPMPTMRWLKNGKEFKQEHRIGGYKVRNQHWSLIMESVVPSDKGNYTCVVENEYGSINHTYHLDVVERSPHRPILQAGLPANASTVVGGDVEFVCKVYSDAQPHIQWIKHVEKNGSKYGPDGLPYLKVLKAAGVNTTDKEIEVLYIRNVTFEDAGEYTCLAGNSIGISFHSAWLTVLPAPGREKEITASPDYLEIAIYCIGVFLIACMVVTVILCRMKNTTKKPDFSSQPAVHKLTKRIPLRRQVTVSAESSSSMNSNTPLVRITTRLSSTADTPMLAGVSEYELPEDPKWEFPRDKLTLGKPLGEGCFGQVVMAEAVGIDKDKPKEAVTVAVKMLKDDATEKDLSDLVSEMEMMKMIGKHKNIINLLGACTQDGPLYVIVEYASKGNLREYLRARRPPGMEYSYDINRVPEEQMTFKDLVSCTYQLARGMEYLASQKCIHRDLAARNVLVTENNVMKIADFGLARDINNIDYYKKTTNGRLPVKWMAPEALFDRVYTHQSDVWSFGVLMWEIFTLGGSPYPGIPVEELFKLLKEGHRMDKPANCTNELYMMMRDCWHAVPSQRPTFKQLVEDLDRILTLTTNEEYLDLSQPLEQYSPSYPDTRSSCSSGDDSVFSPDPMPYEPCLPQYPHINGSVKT
FGFR3, sequence (P22607 23-806): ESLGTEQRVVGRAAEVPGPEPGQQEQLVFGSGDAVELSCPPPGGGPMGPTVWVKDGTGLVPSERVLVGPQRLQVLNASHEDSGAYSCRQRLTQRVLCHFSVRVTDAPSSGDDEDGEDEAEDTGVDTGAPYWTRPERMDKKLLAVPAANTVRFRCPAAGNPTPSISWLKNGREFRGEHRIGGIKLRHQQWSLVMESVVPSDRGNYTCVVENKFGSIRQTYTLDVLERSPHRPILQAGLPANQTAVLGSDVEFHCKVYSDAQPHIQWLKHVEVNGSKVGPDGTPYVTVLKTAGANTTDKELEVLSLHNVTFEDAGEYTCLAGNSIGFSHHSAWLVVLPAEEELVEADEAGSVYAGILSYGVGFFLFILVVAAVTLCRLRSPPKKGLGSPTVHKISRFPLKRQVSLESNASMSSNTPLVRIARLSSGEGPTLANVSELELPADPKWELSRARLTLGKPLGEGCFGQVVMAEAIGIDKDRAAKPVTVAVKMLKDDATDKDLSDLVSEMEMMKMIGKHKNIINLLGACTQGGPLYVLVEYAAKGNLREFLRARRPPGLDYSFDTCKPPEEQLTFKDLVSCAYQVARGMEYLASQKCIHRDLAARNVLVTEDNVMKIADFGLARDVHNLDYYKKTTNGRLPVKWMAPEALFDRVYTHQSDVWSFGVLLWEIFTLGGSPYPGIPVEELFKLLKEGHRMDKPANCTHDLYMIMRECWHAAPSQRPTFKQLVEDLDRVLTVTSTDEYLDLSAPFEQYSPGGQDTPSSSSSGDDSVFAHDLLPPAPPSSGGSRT
FGFR3-BAIAP2L1 Ba/F3 cells, sequence (P22607 23-806 limits assumed, change not shown): as the sequence (P22607 23-806) above

As for `CC(Oc1ccc2[nH]nc(-c3cccc(N=S(C)(C)=O)c3)c2c1)c1c(Cl)cncc1Cl` (stereo not shown) [Example 1, [3-[5-[1-(3,5-dichloro-4-pyridyl)ethoxy]-1H-indazol-3-yl]phenyl]imino-dimethyl-oxo-λ^6-sulfane], the figures for the Kd on FGFR3, on FGFR2 [1] and on FGFR1 were 76 nM, 550 nM and 770 nM, respectively.
Consider `CC(Oc1ccc2[nH]nc(-c3cccc(S(C)(=N)=O)c3)c2c1)c1c(Cl)cncc1Cl` (stereo not shown) [Example 2, (3-(5-(1-(3,5-Dichloropyridin-4-yl)ethoxy)-1H-indazol-3-yl)phenyl)(imino) (methyl)-λ^6-6-sulfanone], for which the Kd (commonly the equilibrium constant for the complex coming apart) on FGFR3 stood at 120 nM; on FGFR2 [2] it was 400 nM; at FGFR1 it was 1200 nM.
Regarding `C[C@@H](Oc1ccc2[nH]nc(/C=C/c3ccc(N=S(C)(C)=O)nc3)c2c1)c1c(Cl)cncc1Cl` [Example 3], the IC50 (commonly the concentration at which inhibition is half-maximal) stood at 20 nM in test [3] and 0.4 nM in test [4].
For `CC(Oc1ccc2[nH]nc(C(=O)Nc3ccc(S(C)(=N)=O)nc3)c2c1)c1c(Cl)cncc1Cl` (stereo not shown) [Example 6, 5-(1-(3,5-Dichloropyridin-4-yl)ethoxy)-N-(6-(S-methylsulfonimidoyl)pyridine-3-yl)-1H-indazole-3-carboxamide], the Kd on FGFR3 came to 47 nM; at FGFR2 [2], 120 nM; at FGFR1, 260 nM.
`C[C@@H](Oc1ccc2[nH]nc(-c3ccc(N4CCS(=N)(=O)CC4)nc3)c2c1)c1c(Cl)cncc1Cl` [Example 12, (R)-4-(5-(5-(1-(3,5-Dichloropyridin-4-yl)ethoxy)-1H-indazol-3-yl)pyridin-2-yl)-1-imino-1λ^6-thiomorpholine 1-oxide]: the 50% inhibitory concentration (IC50) worked out at 4.3 nM in test [3], 5.9 nM in test [5] and 45 nM in test [4].
With `C[C@@H](Oc1ccc2[nH]nc(-c3ccc(N4CCS(=N)(=O)CC4)cc3)c2c1)c1c(Cl)cncc1Cl` [Example 13, (R)-4-(4-(5-(1-(3,5-Dichloropyridin-4-yl)ethoxy)-1H-indazol-3-yl)phenyl)-1-imino-1λ^6-thiomorpholine 1-oxide], half-maximal inhibition in test [3] (IC50) was put at 16 nM.
Same read-out and setting: as for `C[C@H](Oc1ccc2[nH]nc(-c3ccc(N4CCS(=N)(=O)CC4)cc3)c2c1)c1c(Cl)cncc1Cl` [Example 14, (S)-4-(4-(5-(1-(3,5-Dichloropyridin-4-yl)ethoxy)-1H-indazol-3-yl)phenyl)-1-imino-1λ^6-thiomorpholine 1-oxide], the figure is 75 nM; as for `C[C@@H](Oc1ccc2[nH]nc(NC(=O)c3ccc(N=S(C)(C)=O)nc3)c2c1)c1c(Cl)cncc1Cl` [Example 19, (R)—N-(5-(1-(3,5-Dichloropyridin-4-yl)ethoxy)-1H-indazol-3-yl)-6-((dimethyl(oxo)-λ^6-sulfaneylidene)amino)nicotinamide], 39 nM.
In the case of `C[C@@H](Oc1ccc2[nH]nc(-c3ccc(N=S(C)(C)=O)nc3)c2c1)c1c(Cl)cncc1Cl` [Example 21, (R)-((5-(5-(1-(3,5-Dichloropyridin-4-yl)ethoxy)-1H-indazol-3-yl)pyridin-2-yl)imino)dimethyl-λ^6-sulfanone], the IC50 in test [3] stood at 11 nM; in test [5], 19 nM; in test [4], 103 nM.
For `CN=S1(=O)CCN(c2ccc(-c3n[nH]c4ccc(O[C@H](C)c5c(Cl)cncc5Cl)cc34)cn2)CC1` [Example 24, 4-[5-[5-[(1R)-1-(3,5-dichloro-4-pyridyl)ethoxy]-1H-indazol-3-yl]-2-pyridyl]-1-methylimino-1,4-thiazinane 1-oxide], the IC50 was 8.4 nM in test [3], 12 nM in test [5] and 169 nM in test [4].
Regarding `C[C@@H](Oc1ccc2[nH]nc(-c3cnc(N=S(C)(C)=O)c(F)c3)c2c1)c1c(Cl)cncc1Cl` [Example 25, [5-[5-[(1R)-1-(3,5-dichloro-4-pyridyl)ethoxy]-1H-indazol-3-yl]-3-fluoro-2-pyridyl]imino-dimethyl-oxo-λ^6-sulfane], the IC50 in test [3] is 14 nM; in test [5] it was 19 nM; in test [4] it was 81 nM.
For the compound `C[C@@H](Oc1ccc2[nH]nc(-c3cnc(N=S(C)(C)=O)nc3)c2c1)c1c(Cl)cncc1Cl` [Example 26, [5-[5-[(1R)-1-(3,5-dichloro-4-pyridyl)ethoxy]-1H-indazol-3-yl]pyrimidin-2-yl]imino-dimethyl-oxo-λ^6-sulfane], the IC50 in test [3] turned out to be 22 nM; in test [5] it was 29 nM; in test [6], 18 nM; in test [4], 123 nM.
Take `C[C@@H](Oc1ccc2[nH]nc(-c3ccc(S(C)(=N)=O)nc3)c2c1)c1c(Cl)cncc1Cl` (stereo partly drawn) [Example 28, [5-[5-[(1R)-1-(3,5-dichloro-4-pyridyl)ethoxy]-1H-indazol-3-yl]-2-pyridyl]-imino-methyl-oxo-λ^6-sulfane]: the figures for the IC50 in test [3] and in test [5] were 28 nM and 44 nM, respectively.
In the case of `Cc1ncc(Cl)c([C@@H](C)Oc2ccc3[nH]nc(-c4ccc(N=S(C)(C)=O)nc4)c3c2)c1Cl` [Example 30, [5-[5-[(1R)-1-(3,5-dichloro-2-methyl-4-pyridyl)ethoxy]-1H-indazol-3-yl]-2-pyridyl]imino-dimethyl-oxo-λ^6-sulfane], the IC50 in test [3] was determined as 38 nM; in test [5], 47 nM.
Regarding `C[C@@H](Oc1ccc2[nH]nc(-c3ccc(N=S4(=O)CCCC4)nc3)c2c1)c1c(Cl)cncc1Cl` [Example 32, 1-[[5-[5-[(1R)-1-(3,5-Dichloro-4-pyridyl)ethoxy]-1H-indazol-3-yl]-2-pyridyl]imino]thiolane 1-oxide], the Kd stood at 1.9 nM at FGFR3, 15 nM at FGFR2 [1] and 14 nM at FGFR1.
